Data on 2 compounds can be found in US20220288040A1, “USE OF PYRVINIUM FOR THE TREATMENT OF A RAS PATHWAY MUTATED ACUTE MYELOID LEUKEMIA” (INSERM (INSTITUT NATIONAL DE LA SANTÉ ET DE LA RECHERCHE …, priority 2019, published 2022).

One series concerns NRAS^G12A-mutated AML. The class given is in vivo. The note with it: person, trametinib 2 mg/d, hydroxycarbamide 2000 mg daily.
Series [1] concerns RAS pathway activated TF-1, Ba/F3 and UT-7 cells. The experiment in a line: Trametinib dose-range cytotoxicity in RAS pathway activated cell lines. It counts as cell-based, human; murine. To be noted: three fold-dilutions dose-range. The protocol: UptiBlue: Cells were seeded in 100 μl of culture medium for 48 hours. […] The UptiBlue viable cell-counting reagent (Interchim, Montluçon, France) was then added for 4 hours and fluorescence was measured with a Typhoon 8600 scanner (GE Healthcare BioSciences, Buc, France).

Regarding `NC(=O)NO` [hydroxycarbamide], the “white blood cell count / leukocytosis” value with NRAS^G12A-mutated AML (second course) was “limited efficacy”. The toxicity in patient entry in the series with NRAS^G12A-mutated AML is recorded as “hematological toxicity”.

`CC(=O)Nc1cccc(-n2c(=O)n(C3CC3)c(=O)c3c(Nc4ccc(I)cc4F)n(C)c(=O)c(C)c32)c1` [trametinib]: the “cytotoxicity in RAS activated cells compared to isogenic control cells” value in series [1] is given as “marked enhancement of trametinib cytotoxicity”. In addition, in the series with NRAS^G12A-mutated AML, the toxicity in patient result is recorded as “neurological toxicity”.
